Earlier results as cited in patent US6663884B2, “Method of detoxifying the egg of puffer fish for creating healthy foodstuffs and the resulting product” (priority 2002, dated 2003).

## NC1=N[C@H](O)[C@H]2[C@H]3O[C@]4(O)O[C@@H]([C@@H](O)[C@@]2(N1)[C@@H]4O)[C@]3(O)CO [tetrodotoxin]
  solubility in water: soluble in water
